Several values for one entry are separate records, joined by “and”; a condition that tells them apart may be missing. Identical values can stand only once.
Experiments:
[1] = system: Aggregatibacter actinomycetemcomitans (strain-Y4); experiment: MIC and MBC of chlorhexidine spheres; type: cell-based; parameters: key to MIC/MBC class at this concentration: The MIC was defined as the lowest concentration of chlorhexidine spheres that inhibited the growth of microorganism at each time point; The MBC was the lowest concentration of chlorhexidine spheres giving no observable bacterial growth; settings: for MIC: planktonic A. actinomycetemcomitans
Protocol: (§1) The effectiveness of the chlorhexidine spheres against a panel of periodontal pathogens was evaluated by measurements of the growth (optical density) of bacterial cultures. Porphyromonas gingivalis (strain-W50), Fusobacterium nucleatum sub species polymorphum (strain-NCTC10562) and Aggregatibacter actinomycetemcomitans (strain-Y4) were grown on blood agar plates and in brain heart infusion (BHI) broth in an anaerobic environment with an atmosphere of 5% H2, 10% CO2, and 85% N2 at 37° C. for 2 days. BHI broth was pre-reduced with 5 μg/ml hemin and 5 μg/ml menadione bisulphite added. Bacterial numbers in the BHI cultures were determined and standardised by serial dilution and enumeration of colony forming units (CFUs) on agar plates. After overnight incubation, the bacterial suspensions were diluted 1:20 with fresh BHI medium to achieve an optical density of 0.1 for P. gingivalis and A. actinomycetemcomitans and 0.2 for F. nucleatum sub sp. polymorphum at 595 nm (OD595) to give approximately 6.5×10^7 colony-forming units (CFU) per ml.
(§2) Negative control (bacterial inoculum only but no chlorhexidine spheres) and blank (medium only) wells were also included. The microtiter plates were incubated for 0, 24 and 48 hours in anaerobic conditions as above and the optical density (OD) was determined at 595 nm to quantify bacterial growth. The MIC was defined as the lowest concentration of chlorhexidine spheres that inhibited the growth of microorganism at each time point. The MBC was the lowest concentration of chlorhexidine spheres giving no observable bacterial growth. MBC was determined following transfer of the microtiter well contents to micro centrifuge tubes, centrifuging to pellet the bacterial cells, washing to remove any remaining chlorhexidine spheres and incubation on blood agar plates. After incubation anaerobically growth of bacteria that had survived the treatment was recorded.

[2] = system: Fusobacterium nucleatum sub species polymorphum (strain-NCTC10562); experiment: MIC and MBC of chlorhexidine spheres; type: cell-based; parameters: key to MIC/MBC class at this concentration: The MIC was defined as the lowest concentration of chlorhexidine spheres that inhibited the growth of microorganism at each time point; The MBC was the lowest concentration of chlorhexidine spheres giving no observable bacterial growth; settings: for MBC: F. nucleatum sub sp. polymorphum; for MIC: planktonic F. nucleatum sub sp. polymorphum
Protocol: as §1, §2

[3] = system: Porphyromonas gingivalis (strain-W50); experiment: MIC and MBC of chlorhexidine spheres; type: cell-based; parameters: key to MIC/MBC class at this concentration: The MIC was defined as the lowest concentration of chlorhexidine spheres that inhibited the growth of microorganism at each time point; The MBC was the lowest concentration of chlorhexidine spheres giving no observable bacterial growth
Protocol: as §1, §2

[4] = Chlorhexidine release from electrospun PLA fibres at different temperatures; type: physicochemical; settings: 5% in electrospun PLA fibres, deionized water, after 120 h
Protocol: Electrospinning was utilized to fabricate spherical chlorhexidine chloride compound doped polylactic acid (PLA) fibres. Polylactic acid (Nature works, 2002D) was dissolved in a mixed solvent of chloroform and acetone (3:1 by volume) at 7 wt %. Spherical chlorhexidine chloride compounds were added at 5% weight to the PLA and mixed using a Rotomix. Electrospinning was carried out at room temperature (25° C.), with a pumping rate set at 1 ml/h, working distance at 15 cm, and voltage at 18 kv. Electrospun PLA fibres were collected on a foil. For the chlorhexidine release test, the fibres were weighed (Salter ANDER-180A weighing scale, UK) and divided into cuvettes, and each sample was 25 mg (n=5). Deionized water was added to each cuvette and fibres were kept immersed. Three groups of chlorhexidine chloride compound doped fibres were tested at different temperatures (25, 37 and 60° C.). At each time point (1, 3, 5, 10, 20, 30, 45, 72, 96, 120 h), the solutions were collected for the UV absorption test (Lambda 35, Perkin Elmer, USA) and replaced with fresh deionized water as in Example 6.

[5] = Thermo-gravimetric analysis (TGA); type: physicochemical; settings: TGA at 10° C./min in nitrogen, 50-800° C.
Protocol: The chlorhexidine chloride spheres (0.33M CaCl2 group) were analysed by Thermo-gravimetric analysis (TGA Q50, USA). Chlorhexidine diacetate crystals and CaCl2 powder (Sigma-Aldrich, C8106, Lot: SLBF7416V) were tested as comparisons. TGA was carried out at 10° C./min in a nitrogen atmosphere, over a temperature range of 50-800° C. The chlorhexidine proportion was further confirmed by the TGA result. […] The decomposition temperature of the chlorhexidine chloride spheres (210° C.) was higher than the chlorhexidine diacetate crystals (120° C.).

[6] = 0.00025% chlorhexidine spheres, 24 hours
[7] = 0.00025% chlorhexidine spheres, 48 hours
[8] = 0.0005% chlorhexidine spheres, 24 hours
[9] = 0.0005% chlorhexidine spheres, 48 hours
[10] = 0.001% chlorhexidine spheres, 24 hours
[11] = 0.001% chlorhexidine spheres, 48 hours
[12] = 0.002% chlorhexidine spheres, 24 hours
[13] = 0.002% chlorhexidine spheres, 48 hours
[14] = planktonic P. gingivalis, 48 hours

## Cl.Cl.N=C(NCCCCCCNC(=N)NC(=N)Nc1ccc(Cl)cc1)NC(=N)Nc1ccc(Cl)cc1 [chlorhexidine spheres]
[1]; [6]
  MIC/MBC class at this concentration: MBC
[1]; [7]
  MIC/MBC class at this concentration: MBC
[1]; [8]
  MIC/MBC class at this concentration: MBC
[1]; [9]
  MIC/MBC class at this concentration: MBC
[1]; [10]
  MIC/MBC class at this concentration: MBC
[1]; [11]
  MIC/MBC class at this concentration: MBC
[1]; A. actinomycetemcomitans
  concentrations with antimicrobial effect: ≥ 0.00025%
[1]; A. actinomycetemcomitans, 24 and 48 hour cultures
  MBC: 0.00025%
[1]; 24 hours
  MIC: 0.00025%
[1]; 48 hours
  MIC: 0.00025%
[2]; [8]
  MIC/MBC class at this concentration: No Inhibition
[2]; [9]
  MIC/MBC class at this concentration: No Inhibition
[2]; [10]
  MIC/MBC class at this concentration: MBC
[2]; [11]
  MIC/MBC class at this concentration: MBC
[2]; [12]
  MIC/MBC class at this concentration: MBC
[2]; [13]
  MIC/MBC class at this concentration: MBC
[2]; 0.004% chlorhexidine spheres, 24 hours
  MIC/MBC class at this concentration: MBC
[2]; 0.004% chlorhexidine spheres, 48 hours
  MIC/MBC class at this concentration: MBC
[2]; 24 hours
  MBC: 0.001%
  MIC: 0.0005% and 0.001%
[2]; 48 hours
  MBC: 0.001%
  MIC: 0.001%
[2]; F. nucleatum, time not stated
  threshold for inhibition (MIC): 0.001%
[3]; [6]
  MIC/MBC class at this concentration: MIC
[3]; [7]
  MIC/MBC class at this concentration: MBC
[3]; [8]
  MIC/MBC class at this concentration: MBC
[3]; [9]
  MIC/MBC class at this concentration: MBC
[3]; [10]
  MIC/MBC class at this concentration: MBC
[3]; [11]
  MIC/MBC class at this concentration: MBC
[3]; [12]
  MIC/MBC class at this concentration: MBC
[3]; [13]
  MIC/MBC class at this concentration: MBC
[3]; P. gingivalis
  concentrations with antimicrobial effect: ≥ 0.00025%
[3]; P. gingivalis, 24 hours
  MBC: 0.0005%
[3]; planktonic P. gingivalis, 24 hours
  MIC: 0.00025%
[3]; [14]
  MBC: 0.00025%
  MIC: 0.00025%
[4]; 25° C.
  chlorhexidine dissolved: 65.8%
[4]; 37° C.
  chlorhexidine dissolved: 79.7%
[4]; 60° C.
  chlorhexidine dissolved: 89.6%
[5]
  decomposition temperature: 210 °C

Reference: US10640463B2, “Chlorhexidine crystal forms and uses thereof in medicine” (Queen Mary University of London, priority 2016, dated 2020)
